{
  "source": "patent US10420786B2",
  "about": "“Compositions for use in cardioplegia comprising esmolol and adenosine” (AOP ORPHAN IP AG, priority 2009, dated 2019)",
  "key": {"[1]": {"settings": "cited from earlier work"}, "[2]": {"tested_on": "Langendorff perfused rat heart", "assay": "Reversibility of esmolol: treatment for 10 minutes then washout without ischaemia", "description": "All the following experiments performed in a Langendorff perfused rat heart.\nThe first study is to determine the reversibility of esmolol at different concentrations after treatment with esmolol for 10 minutes then washout without ischaemia and LVDP was measured 9 minutes after starting the treatment and 3 minutes and 15 minutes after washing out the drug. The following doses were studied 0.03, 0.1, 0.3, 1, 3 mM. (n=5 each group)\nIt is therefore decided that esmolol concentration between 0.3 and 1 mM offers reasonable arresting effect with good reversibility profile."}, "[3]": {"settings": "pH 7.0; cited from earlier work"}, "[4]": {"tested_on": "Langendorff perfused rat hearts", "settings": "cited from earlier work"}, "[5]": {"tested_on": "heart", "assay": "Arrest by esmolol on its own (applicant's finding)", "settings": "esmolol 0.75 mmol/L on its own"}},
  "note": "Read-outs that look alike come from different tables or passages of the source.",
  "data": [
    {"smiles": "COC(=O)CCc1ccc(OCC(O)CNC(C)C)cc1.Cl", "note": "(racemic) [Esmolol, (±)-Methyl p-[2-hydroxy-3-(isopropylamino)propoxy] hydrocinnamate hydrochloride]", "values": [
      {"measurement": "solubility in alcohol", "setting": "[1]", "value": "freely soluble"},
      {"measurement": "solubility in water", "setting": "[1]", "value": "very soluble"},
      {"measurement": "reversibility (LVDP recovery) profile after washout", "setting": "[2]; 0.3 mM compared with 1 mM esmolol", "value": "better reversibility (LVDP recovery) profile"},
      {"measurement": "esmolol concentration required to induce arrest", "setting": "[2]; esmolol alone, doses 0.03, 0.1, 0.3, 1, 3 mM", "value": 1, "unit": "mM"},
      {"measurement": "partition coefficient (octanol/water)", "setting": "[3]", "value": 0.42},
      {"measurement": "reversibility of arrest", "setting": "[4]; esmolol 0.75 mmol/L", "value": "easily reversible"},
      {"measurement": "reversibility of arrest", "setting": "[4]; esmolol 1.5 mmol/L", "value": "slowly reversible with poor recovery"},
      {"measurement": "esmolol concentration that can cause cardiac arrest", "setting": "[4]; in-vitro studies", "value": "higher than 1 mmol/L"},
      {"measurement": "induction of effective arrest", "setting": "[5]", "value": "not sufficient to induce effective arrest"}
    ]},
    {"smiles": "Nc1ncnc2c1ncn2[C@@H]1O[C@H](CO)[C@@H](O)[C@H]1O", "note": "[Adenosine, (2R,3R,4S,5R)-2-(6-amino-9H-purin-9-yl)-5-(hydroxymethyl)oxolane-3,4-diol]", "values": [
      {"measurement": "solubility in alcohol", "setting": "[1]", "value": "practically insoluble"},
      {"measurement": "solubility in water", "setting": "[1]", "value": "soluble"}
    ]},
    {"smiles": "CC(C)NCC(O)COc1cccc2ccccc12", "note": "(stereo not drawn) [propranolol]", "values": [
      {"measurement": "partition coefficient (octanol/water)", "setting": "[3]", "value": 17.0}
    ]}
  ]
}
